The nature of one series: Stability. To be noted: pH range in which stable. The format is physicochemical.
A short description of the next series: Solubility in solvents. It counts as physicochemical.
The test system of another series is Proteus vulgaria. The experiment in a line: disc plate method (Table 1). Conditions: 1 mg/ml, paper disc 8 mm. The format is cell-based. From the text:
(§1) Tables 1 and 2 show the antibacterial spectra of the antibiotics KA-6606 VII to KA-6606 XVII against various bacteria, determined by the disc plate method, in comparison with the KA-6606 II substance. Each of the chemicals is used as impregnated in a paper disc having a diameter of 8 mm.

The next series has as its system Escherichia coli NIHJ. The experiment in a line: disc plate method (Table 1). The format is cell-based. To be noted: 1 mg/ml, paper disc 8 mm.
Source text: as §1

Series [1] relates to Bacillus subtilis ATCC 6633. The experiment in a line: disc plate method (Table 1). The format is cell-based. To be noted: 1 mg/ml; paper disc 8 mm; Bacillus subtilis ATCC 6633 (Table 1).
Source text: as §1

In a further series the test system is Serratia marcescens. The experiment in a line: disc plate method (Table 1). It counts as cell-based. Conditions: 1 mg/ml, paper disc 8 mm.
Source text: as §1

Another series relates to Proteus inconstans. The experiment in a line: disc plate method (Table 1). It counts as cell-based. Conditions: 1 mg/ml; paper disc 8 mm; Proteus inconstans (Table 1).
Source text: as §1

Another series relates to Klebsiella pneumoniae. The experiment in a line: disc plate method (Table 1). It counts as cell-based. Conditions: 1 mg/ml, paper disc 8 mm.
Source text: as §1

The subject of the next series is Pseudomonas aeruginosa. The experiment in a line: disc plate method (Table 1). To be noted: 1 mg/ml, paper disc 8 mm, read-out: Inhibition zone (diameter). The format is cell-based.
Source text: as §1

Series [2] relates to Staphylococcus aureus 209P. The experiment in a line: disc plate method (Table 1). Conditions: 1 mg/ml, paper disc 8 mm. It counts as cell-based.
Source text: as §1

Turning to `CNC1C(OC)CC(N)C(OC2OC(C(C)N)CCC2N)C1O` (stereo not shown) [KA-6606 VIII], the “Stability (stable at pH)” value in the series “Stability” is recorded as 2-10 pH. The “Solubility in solvents: chloroform” value in the series “Solubility in solvents” (chloroform) is “Insoluble”. Further, the “Solubility in solvents: ethyl acetate” value in “Solubility in solvents” (ethyl acetate) is “Insoluble”. For the same molecule, the “Solubility in solvents: methanol” value in the series “Solubility in solvents” (methanol) is recorded as “Easily soluble”. For the same molecule, in the series “Solubility in solvents” (water), the “Solubility in solvents: water” value was “Easily soluble”. Besides, the “Inhibition zone (diameter)” value in the series on Proteus vulgaria is given as 23.3 mm; in the series with Escherichia coli NIHJ it was 21.9 mm; in series [1], 26.2 mm; with Serratia marcescens it was 19.7 mm; in the series on Proteus inconstans, 18.9 mm; in the series with Klebsiella pneumoniae it was 18.8 mm. Besides, the “Inhibition zone (diameter)” value in series [2] is 13.5 mm. Besides, the zone of inhibition at 1000 µg/mL in the series with Pseudomonas aeruginosa is 17.3 mm.

For the origin of these results see patent publication US4515942A, “Antibiotics KA-6606 XII, XIII, XV, XVI and XVII” (Kowa Company, Ltd., priority 1980, dated 1985).
